Patent publication US11459338B2, “Heterocyclic compounds as PRMT5 inhibitors” (JUBILANT EPISCRIBE LLC, priority 2018, dated 2022)

Experiments:
[1] = test system: Z-138 cells; assay: Z-138 long term proliferation assay (Cell Titer Glo); format: cell-based; conditions: Homo sapiens, 192 h; Z-138 cells, cell viability, day 8; read-out: PRMT5 Z138 GI50 Day 8 μM
Method: A compound source plate was prepared by performing ten-point 3-fold dilution in DMSO, such that the final top concentration of the compound was 10 μM, and DMSO was 0.3%. The total volume of compounds added was 20 μL. The cells were incubated for 96 h at 37° C., 5% CO2. […] The cells were re-treated with the compounds and incubated for an additional four days. Cell viability was measured on both day 4 and day 8, by adding 25 μL of Cell Titer Glo reagent to an equal volume of cell suspension. Luminescence was read on a PerkinElmer Victor3 multiplate reader. The concentration of compound inhibiting cell viability by 50% was determined using a 4-parameter, variable slope fit of the normalized dose response curves.

[2] = molecular target: T1, PRMT5/MEP50 (Homo sapiens, UniProt O14744); assay: PRMT5/MEP50 enzyme assay on peptide substrates (3H-SAM Flashplate); format: biochemical; conditions: PRMT5/MEP50 10 nM, H4 1-15aa peptide 100 nM, 3H-SAM 1 μM
T1 construct: Full-length human PRMT5 (NP_006100)
Source text: General materials like S-adenocylmethionine (SAM), S-adenosylhomocysteine (SAH), Tris-HCl, DTT, […] (BSA) and Tween-20 were purchased from Sigma-Aldrich. 3H-SAM and 384-well streptavidin Flashplates were purchased from Perkin Elmer. Substrates that were used were Peptide representative of human Histone 4 residues 1-15 which was purchased from Rockland antibodies and assays.
PRMT5/MEP50 Enzyme assay on Peptide Substrates.
The assays were all performed in a buffer consisting of 50 mMTris-HCl, pH 8, 1 mM DTT, 0.01% BSA, 0.01% Tween-20, prepared on the day of use. Test compounds were diluted 3-fold in assay buffer (final DMSO concentration of 1%) and added into a 384-well OptiPlate (PerkinElmer, #6007290). A cocktail (10 μL) of PRMT5/MEP50 enzyme and the peptide was added to the wells. The compounds were allowed to incubate with PRMT5/MEP50 for 30 min at room temperature, then 5 μL of ^3H-SAM was added to initiate the reaction. The final concentrations of the components were as follows: PRMT5/MEP50-10 nM, H4, 1-15aa peptide-100 nM, ^3H-SAM-1 μM. The assays were stopped by the addition of 1 mM SAH. 25 μL of the reaction from the 384-well OptiPlate was then transferred to a 384-well Flashplate and the biotinylated peptides were allowed to bind to the streptavidin surface for at least 1 h, before being washed twice with 50 mMTris-HCl, pH 8, 0.1% Tween-20. The plates were then read in a PerkinElmer Topcount plate reader to measure the quantity of ^3H-labeled peptide bound to the Flashplate surface measured as disintegrations per minute (dpm), also referred to as counts per minute (cpm).
The IC50 values were calculated using a 4-parameter variable slope fit algorithm (cpm—counts per minute, cmpd—signal in assay well, and cpmmax and cpmmin mare the respective minimum and maximum signal controls).

T1 sequence (O14744 whole entry): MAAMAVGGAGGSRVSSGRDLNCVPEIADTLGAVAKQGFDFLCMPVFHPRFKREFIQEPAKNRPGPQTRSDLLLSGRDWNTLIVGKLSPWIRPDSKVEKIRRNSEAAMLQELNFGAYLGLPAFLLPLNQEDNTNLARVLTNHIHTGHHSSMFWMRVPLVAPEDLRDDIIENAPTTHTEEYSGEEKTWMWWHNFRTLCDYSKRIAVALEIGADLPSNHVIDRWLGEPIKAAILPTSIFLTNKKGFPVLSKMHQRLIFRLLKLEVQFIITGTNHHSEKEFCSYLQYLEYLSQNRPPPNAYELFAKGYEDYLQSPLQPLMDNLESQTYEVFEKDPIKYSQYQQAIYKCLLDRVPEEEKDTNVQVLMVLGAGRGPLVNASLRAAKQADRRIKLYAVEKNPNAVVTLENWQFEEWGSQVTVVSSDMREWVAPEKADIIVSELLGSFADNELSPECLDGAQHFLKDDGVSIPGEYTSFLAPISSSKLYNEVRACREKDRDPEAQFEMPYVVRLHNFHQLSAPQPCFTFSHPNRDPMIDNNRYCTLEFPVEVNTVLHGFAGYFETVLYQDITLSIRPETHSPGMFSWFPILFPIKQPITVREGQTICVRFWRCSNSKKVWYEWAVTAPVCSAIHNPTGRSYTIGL
T1 sequence (Q9BQA1 whole entry partner): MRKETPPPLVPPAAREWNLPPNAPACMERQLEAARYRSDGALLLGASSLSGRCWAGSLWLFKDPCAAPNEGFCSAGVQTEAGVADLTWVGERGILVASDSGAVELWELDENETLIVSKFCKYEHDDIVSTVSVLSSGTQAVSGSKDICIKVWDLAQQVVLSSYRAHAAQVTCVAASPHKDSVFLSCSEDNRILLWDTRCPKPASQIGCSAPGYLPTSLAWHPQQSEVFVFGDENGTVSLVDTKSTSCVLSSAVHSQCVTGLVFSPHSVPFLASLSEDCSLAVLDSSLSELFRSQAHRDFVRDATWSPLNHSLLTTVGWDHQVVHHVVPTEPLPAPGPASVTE

SMILES | IC50 [2] [nM] | GI50 [1] [nM]
O=C(NC[C@H](O)[C@@H](O)CN1CCc2ccccc2C1)c1cn2cc(C(F)(F)F)ccc2n1 [Example 76, N-((2S,3S)-4-(3,4-dihydroisoquinolin-2(1H)-yl)-2,3-dihydroxybutyl)-6-(trifluoromethyl)imidazo[1,2-a]pyridine-2-carboxamide] | 10 to 1000 | 10 to 1000
CNC(=O)c1ccc2nc(C(=O)NC[C@H](O)CN3CCc4ccccc4C3)cn2c1 [Example 38, (S)—N2-(3-(3,4-dihydroisoquinolin-2(1H)-yl)-2-hydroxypropyl)-N6-methylimidazo[1,2-a]pyridine-2,6-dicarboxamide] | 10 to 1000 | 10 to 1000
O=C(NC[C@H](O)CN1CCc2ccccc2C1)c1cn2cc(N3CC(F)(F)C3)ccc2n1 [Example 59, (S)-6-(3,3-difluoroazetidin-1-yl)-N-(3-(3,4-dihydroisoquinolin-2(1H)-yl)-2-hydroxypropyl)imidazo[1,2-a]pyridine-2-carboxamide] | 1000 to 5000 | 1000 to 5000
O=C(NC[C@H](O)CN1CCc2cc(F)ccc2C1)c1cn2cc(C(F)(F)F)ncc2n1 [Example 84, (S)—N-(3-(6-fluoro-3,4-dihydroisoquinolin-2(1H)-yl)-2-hydroxypropyl)-6-(trifluoromethyl)imidazo[1,2-a]pyrazine-2-carboxamide] | 1000 to 5000 | 1000 to 5000
O=C(NCC(O)CNC1Cc2ccccc2C1)c1cn2cc(C3CCOCC3)ccc2n1 (centres unmarked) [Example 97, N-(3-((2,3-dihydro-1H-inden-2-yl)amino)-2-hydroxypropyl)-6-(tetrahydro-2H-pyran-4-yl)imidazo[1,2-a]pyridine-2-carboxamide] | 10 to 1000 | 10 to 1000
Cc1c(C(=O)NC[C@H](O)CN2CCc3ccccc3C2)nc2cnc(-c3ccc(=O)n(C)c3)cn12 [Example 66, (S)—N-(3-(3,4-dihydroisoquinolin-2(1H)-yl)-2-hydroxypropyl)-3-methyl-6-(1-methyl-6-oxo-1,6-dihydropyridin-3-yl)imidazo[1,2-a]pyrazine-2-carboxamide] | 10 to 1000 | 10 to 1000
O=C(NC[C@H](O)CN1CCc2cc(F)ccc2C1)c1cn2nc(C(F)(F)F)ccc2n1 [Example 83, (S)—N-(3-(6-fluoro-3,4-dihydroisoquinolin-2(1H)-yl)-2-hydroxypropyl)-6-(trifluoromethyl)imidazo[1,2-b]pyridazine-2-carboxamide] | > 5000 | > 5000
O=C(NC[C@H](O)[C@@H](O)CN1CCc2ccccc2C1)c1cn2c(n1)CCC(C(F)(F)F)C2 (stereo partly drawn) [Example 117, N-((2S,3S)-4-(3,4-dihydroisoquinolin-2(1H)-yl)-2,3-dihydroxybutyl)-6-(trifluoromethyl)-5,6,7,8-tetrahydroimidazo[1,2-a]pyridine-2-carboxamide] | 10 to 1000 | 10 to 1000
O=C(NC[C@H](O)CN1CCc2ccccc2C1)c1cn2cc(N3CCOCC3)ccc2n1 [Example 72, (S)—N-(3-(3,4-dihydroisoquinolin-2(1H)-yl)-2-hydroxypropyl)-6-morpholinoimidazo[1,2-a]pyridine-2-carboxamide] | 10 to 1000 | 1000 to 5000
CN(C[C@H](O)CN1CCc2ccccc2C1)C(=O)c1cn2c(n1)CCC(C(F)(F)F)C2 (some centres unmarked) [Example 119] | 10 to 1000 | 10 to 1000

Second part, led by results:

IC50 [2] [nM] | SMILES | GI50 [1] [nM]
10 to 1000 | CN(C[C@H](O)CN1CCc2ccccc2C1)C(=O)c1cn2cc(-c3ccc(C#N)cc3)ncc2n1 [Example 95, (R)-6-(4-cyanophenyl)-N-(3-(3,4-dihydroisoquinolin-2(1H)-yl)-2-hydroxypropyl)-N-methylimidazo[1,2-a]pyrazine-2-carboxamide] | 10 to 1000
1000 to 5000 | Cc1ccn2nc(C(=O)NC[C@H](O)CN3CCc4ccccc4C3)c(F)c2n1 [Example 67] | > 5000
1000 to 5000 | O=C(NCC(O)CN1CCc2ccccc2C1)c1cn2c(n1)CCCC2 (centres unmarked) [Example 101, N-(3-(3,4-dihydroisoquinolin-2(1H)-yl)-2-hydroxypropyl)-5,6,7,8-tetrahydroimidazo[1,2-a]pyridine-2-carboxamide] | > 5000
10 to 1000 | Cn1ccc(-c2cnc3nc(C(=O)NC[C@H](O)CN4CCc5ccccc5C4)cn3c2)cc1=O [Example 44, (S)—N-(3-(3,4-dihydroisoquinolin-2(1H)-yl)-2-hydroxypropyl)-6-(1-methyl-2-oxo-1,2-dihydropyridin-4-yl)imidazo[1,2-a]pyrimidine-2-carboxamide] | 10 to 1000
10 to 1000 | CC(=O)N1CCC(c2cn3cc(C(=O)NC[C@H](O)CN4CCc5ccccc5C4)nc3cn2)CC1 [Example 52, (S)-6-(1-acetylpiperidin-4-yl)-N-(3-(3,4-dihydroisoquinolin-2(1H)-yl)-2-hydroxypropyl)imidazo[1,2-a]pyrazine-2-carboxamide] | 10 to 1000
10 to 1000 | CC(C)c1nc(-c2ccc3nc(C(=O)NC[C@H](O)CN4CCc5ccccc5C4)cn3c2)no1 [Example 24, (S)—N-(3-(3,4-dihydroisoquinolin-2(1H)-yl)-2-hydroxypropyl)-6-(5-isopropyl-1,2,4-oxadiazol-3-yl)imidazo[1,2-a]pyridine-2-carboxamide] | 10 to 1000
10 to 1000 | Cn1ccc(-c2ccc3nc(C(=O)NC[C@H](O)[C@@H](O)CN4CCc5ccccc5C4)cn3c2)cc1=O [Example 80, N-((2S,3S)-4-(3,4-dihydroisoquinolin-2(1H)-yl)-2,3-dihydroxybutyl)-6-(1-methyl-2-oxo-1,2-dihydropyridin-4-yl)imidazo[1,2-a]pyridine-2-carboxamide] | 10 to 1000
10 to 1000 | N#Cc1ccc2nc(C(=O)NC[C@H](O)CN3CCc4ccccc4C3)cn2c1 [Example 123, (S)-6-cyano-N-(3-(3,4-dihydroisoquinolin-2(1H)-yl)-2-hydroxypropyl)imidazo[1,2-a]pyridine-2-carboxamide] | 10 to 1000
> 5000 | O=C(NC[C@H](O)CN1CCc2ccccc2C1)c1nn2ccc(C(F)(F)F)nc2c1F [Example 68, (S)—N-(3-(3,4-dihydroisoquinolin-2(1H)-yl)-2-hydroxypropyl)-3-fluoro-5-(trifluoromethyl)pyrazolo[1,5-a]pyrimidine-2-carboxamide] | > 5000
10 to 1000 | CC(=O)N1CCC(c2ccc3nc(C(=O)NC[C@H](O)CN4CCc5ccccc5C4)cn3n2)CC1 [Example 49, (S)-6-(1-acetylpiperidin-4-yl)-N-(3-(3,4-dihydroisoquinolin-2(1H)-yl)-2-hydroxypropyl)imidazo[1,2-b]pyridazine-2-carboxamide] | 10 to 1000
10 to 1000 | O=C(NC[C@H](O)CN1CCc2ccccc2C1)c1cn2cc(-c3noc(C4CC4)n3)ccc2n1 [Example 25, (S)-6-(5-cyclopropyl-1,2,4-oxadiazol-3-yl)-N-(3-(3,4-dihydroisoquinolin-2(1H)-yl)-2-hydroxypropyl)imidazo[1,2-a]pyridine-2-carboxamide] | 10 to 1000
10 to 1000 | CN1CCN(c2ccc3nc(C(=O)NC[C@H](O)CN4CCc5ccccc5C4)cn3c2)CC1 [Example 71, (S)—N-(3-(3,4-dihydroisoquinolin-2(1H)-yl)-2-hydroxypropyl)-6-(4-methylpiperazin-1-yl)imidazo[1,2-a]pyridine-2-carboxamide] | 1000 to 5000
